The source made the active and inactive calls.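 Rule for the calls: active = a tumor-causing dose value with its tumor site reported for any sex and species group of a rodent or other animal cancer study; inconclusive = only studies judged inadequate by the national testing program; inactive = tested in at least one study, none positive.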
Assay: DSSTox (CPDBAS) Carcinogenic Potency Database Summary SingleCellCall Results
Details: animal chronic carcinogenicity bioassays, CPDB summary call
Procedure, shortened: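 Categorical carcinogenicity call compiled from published chronic rodent and other animal cancer bioassays; based on the most positive result across experiments for each sex-species, assigned on minimal evidence for or against activity.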

Row | SMILES | outcome
1 | CC(Cl)CCl (centres undefined) | active; inactive
2 | CCCCN(CCCC)N=O | active
3 | Nc1ccc(N=Nc2ccccc2)c(N)n1 | active
4 | COc1cc(NC(=O)C(N=Nc2ccc(-c3ccc(N=NC(C(C)=O)C(=O)Nc4cc(OC)c(Cl)cc4OC)c(Cl)c3)cc2Cl)C(C)=O)c(OC)cc1Cl (centres undefined) | inactive
5 | CCn1cc(C(=O)O)c(=O)c2ccc(C)nc21 | active
6 | C=C(F)F | inactive
7 | CCCCN(CC)C(=O)SCCC | inactive
8 | CN(C)c1ccc(Cc2ccc(N(C)C)cc2)cc1 | active
9 | O=CCBr | inactive; active
10 | Nc1ccc(NCCO)c([N+](=O)[O-])c1 | inactive
11 | CCC(C)c1cc([N+](=O)[O-])cc([N+](=O)[O-])c1O (centres undefined) | inactive
12 | Cc1ccccc1[N+](=O)[O-] | active
13 | O=C(O)C(Cl)(Cl)Cl | active
14 | CN(C)CNc1nnc(/C=C/c2ccc([N+](=O)[O-])o2)o1 | active
15 | CCCc1cc(=O)[nH]c(=S)[nH]1 | active
16 | O=C1c2ccccc2C(=O)c2ccccc21 | inactive
17 | Nc1c(F)c(N)c(F)c(F)c1F | active; inactive
18 | CC(O)CN(CC(C)O)CC(C)O (centres undefined) | inactive; active
19 | O=C1CCC(=O)O1 | inactive
20 | Cn1cc(C(=O)[C@@H]2CCc3nc[nH]c3C2)c2ccccc21 | inactive; active
21 | OCc1ccccc1 | inactive
22 | O=S(=O)(Oc1ccc(Cl)cc1Cl)c1ccccc1 | inactive
23 | CCN(CC(F)(F)F)N=O | active
24 | COc1cc(S(C)=O)ccc1-c1nc2ccncc2[nH]1 (centres undefined) | active

Row | SMILES | outcome
25 | Clc1ccc(C(c2ccccc2Cl)C(Cl)Cl)cc1 (centres undefined) | inactive
26 | N[C@@H](Cc1ccc(N(CCCl)CCCl)cc1)C(=O)O | active
27 | Cc1c(N(C)C)c(=O)n(-c2ccccc2)n1C | inactive
28 | CC(O)CN(N=O)C(=O)NCCCl (centres undefined) | active
29 | NC(=O)NC1NC(=O)NC1=O (centres undefined) | inactive
30 | O=c1c(CO)c/c(=N/Nc2ccc(S(=O)(=O)O)c3ccccc23)c(=O)/c1=N/Nc1ccc(S(=O)(=O)O)c2ccccc12 | inactive
31 | O=Cc1ccccc1 | active
32 | CCCCC(CC)COC(=O)COc1ccc(Cl)cc1Cl (centres undefined) | inactive
33 | Clc1c(Cl)c(Cl)c(Cl)c(Cl)c1Cl | active; inactive
34 | CC/C(=C(\c1ccccc1)c1ccc(OCCN(C)C)cc1)c1ccccc1 | active
35 | NC(=O)N/N=C/c1ccco1 | inactive
36 | COP(=O)(OC)C(O)C(Cl)(Cl)Cl (centres undefined) | inactive
37 | COc1ccc(OC)c(/C=C/c2ccc(N)cc2)c1 | active
38 | CC(O)CN(C)c1ccc(NN)nn1 (centres undefined) | inactive
39 | CN(C)CCN(C)N=O | active; inactive
40 | CC(C)O | inactive
41 | C=C1C(C)(C)[C@@]2(Cl)C(Cl)[C@]1(Cl)C(Cl)(Cl)C2(Cl)Cl (some centres undefined) | active
42 | NC(=O)N/N=C/c1ccc([N+](=O)[O-])o1 | active
43 | CC(C)NCC(O)COc1cccc2ccccc12 (centres undefined) | inactive
44 | Nc1ccc(N=Nc2ccc(N)cc2)cc1 | inactive; active
45 | CC(=O)Nc1ccc2c(c1)C(=O)c1ccccc1-2 | active
46 | O=C(O)CCC(=O)O | inactive; active
47 | O=P(O)(O)O | inactive; active
48 | C[C@]12C/C(=C/O)C(=O)C[C@@H]1CC[C@@H]1[C@@H]2CC[C@@]2(C)[C@H]1CC[C@]2(C)O | active

Row | SMILES | outcome
49 | C[C@@H]1C[C@H]2[C@@H]3CCC4=CC(=O)C=C[C@]4(C)[C@@]3(F)[C@@H](O)C[C@]2(C)[C@@]1(O)C(=O)CO | inactive
50 | NNC(=O)c1ccncc1 | active; inactive
51 | CC#N | inactive
52 | Nc1cc([N+](=O)[O-])ccc1O | active
53 | C/C=C/c1ccc2c(c1)OCO2 | inactive
54 | CC[C@]1(O)CC2CN(CCc3c([nH]c4ccccc34)[C@@](C(=O)OC)(c3cc4c(cc3OC)N(C)[C@H]3[C@@](O)(C(=O)OC)[C@H](OC(C)=O)[C@]5(CC)C=CCN6CC[C@]43[C@@H]65)C2)C1 (some centres undefined) | inactive
55 | CN(N=O)C1=Nc2ccc(Cl)cc2C(c2ccccc2)=[N+]([O-])C1 | inactive
56 | O=NN1CCCN(N=O)CC1 | active
57 | NNC(N)=O | active; inactive
58 | CN(N=O)C(N)=O | active; inactive
59 | CC(C)=CCl | active
60 | ClC=C(Cl)Cl | active; inactive
61 | CC(=O)NNC(=O)c1ccncc1 | active
62 | NC(=S)NNC(N)=S | inactive
63 | O=[N+]([O-])c1ccc(-c2nc(NCCO)c3ccccc3n2)s1 | active
64 | Cc1cc(O)c(C)c2c1OC(C)(CCCC(C)CCCC(C)CCCC(C)C)CC2 (centres undefined) | active
65 | Nc1ccc(-c2ccccc2)cc1 | active
66 | [N-]=[N+]=O | inactive
67 | CN(C)CCN(Cc1cccs1)c1ccccn1 | active
68 | CC(=O)N[C@@H](CC(C)C)C(=O)N[C@@H](CC(C)C)C(=O)N[C@H](C=O)CCCN=C(N)N | active; inactive
69 | O=Nc1ccc(NO)cc1 | active
70 | CN(C)[C@@H]1C(=O)C(C(N)=O)=C(O)[C@@]2(O)C(=O)C3=C(O)c4c(O)cccc4[C@@](C)(O)[C@H]3[C@H](O)[C@@H]12 | inactive; active
71 | Nc1ccc(Oc2ccc(N)cc2)cc1 | active
72 | CC(C)(C)O | active; inactive

Row | SMILES | outcome
73 | CCCN(CCC)S(=O)(=O)c1ccc(C(=O)O)cc1 | active
74 | C=C(C)C#N | inactive
75 | Clc1nc(Cl)nc(Nc2ccccc2Cl)n1 | inactive
76 | C1CNCCN1 | inactive
77 | O=[N+]([O-])OCC(CO[N+](=O)[O-])O[N+](=O)[O-] | active
78 | CCC(C)[N+](=O)[O-] (centres undefined) | active
79 | O=[As](O)(O)O | inactive
80 | FC(F)(Cl)Cl | inactive
81 | CC1=C[C@H]2O[C@@H]3[C@H](O)C[C@@](C)(C34CO4)[C@@]2(CO)[C@H](O)C1=O (some centres undefined) | inactive; active
82 | CCNC(=O)Nc1ncc([N+](=O)[O-])s1 | active
83 | CC(O)CCl (centres undefined) | inactive; active
84 | Nc1ccccc1C(=O)O | inactive; active
85 | O=c1oc2c(O)c(O)cc3c(=O)oc4c(O)c(O)cc1c4c23 | inactive
86 | CCc1ccccc1 | active
87 | COc1ccc(O)cc1 | active
88 | CCN(CC)C(=S)[S-].CCN(CC)C(=S)[S-].[Cd+2] | inactive
89 | ClCCOCCCl | active
90 | CN(C)CCN(Cc1cccs1)c1ccccc1 | inactive
91 | CCCCCN(N=O)C(=N)N[N+](=O)[O-] | inactive
92 | CCCCCCCC/C=C\CCCCCCCC(=O)O | inactive
93 | CC1(C)[C@@H](OC2O[C@H](C(=O)O)[C@@H](O)[C@H](O)[C@H]2O[C@H]2O[C@H](C(=O)O)[C@@H](O)[C@H](O)[C@H]2O)CC[C@]2(C)[C@H]3C(=O)C=C4[C@@H]5C[C@@](C)(C(=O)O)CC[C@]5(C)CC[C@@]4(C)[C@]3(C)CC[C@@H]12 (some centres undefined) | inactive
94 | O=C(O)CN(CC(=O)O)CC(=O)O | active
